According to publication PMC12028158, “Synthesis and In Vitro Evaluation of the Anticancer Effect of Novel Phosphonium Vindoline Derivatives” (International Journal of Molecular Sciences, 2025):
Where two headings read alike, the source gives them in different places.

Key:
Type in all cases: cell-based
BT-549 = test: NCI60 one-dose screen; details: Homo sapiens
EKVX = test: NCI60 one-dose screen; details: Homo sapiens, read-out: Growth percent
HCC-2998 = test: NCI60 one-dose screen; details: Homo sapiens
NCI-H322M = test: NCI60 one-dose screen; details: Homo sapiens, read-out: Growth percent
Leukemia panel = test: NCI60 five-dose screen, panel mean; details: Homo sapiens
SK-MEL-28 = test: NCI60 one-dose screen; details: Homo sapiens
ACHN [1] = test: NCI60 one-dose screen; details: Homo sapiens, read-out: Growth percent
[2] = test system: 60 human tumor cell lines (NCI60); test: NCI60 one-dose screen, overall mean; details: for activity at 10 µM: Homo sapiens, read-out: Mean growth percent
OVCAR-4 [3] = test: NCI60 one-dose screen; details: Homo sapiens
HCT-15 [4] = test: NCI60 one-dose screen; details: Homo sapiens
Renal Cancer panel = test: NCI60 five-dose screen, panel mean; details: Homo sapiens
CCRF-CEM = test: NCI60 five-dose screen; details: Homo sapiens
LOX IMVI = test: NCI60 five-dose screen; details: Homo sapiens
Ovarian Cancer panel = test: NCI60 five-dose screen, panel mean; details: Homo sapiens
HOP-62 = test: NCI60 five-dose screen; details: Homo sapiens
CAKI-1 = test: NCI60 one-dose screen; details: Homo sapiens
NCI-H23 = test: NCI60 one-dose screen; details: Homo sapiens
OVCAR-5 = test: NCI60 one-dose screen; details: Homo sapiens
UACC-62 = test: NCI60 five-dose screen; details: Homo sapiens
HCT-116 [5] = test: NCI60 five-dose screen; details: Homo sapiens
HCT-116 [6] = test: NCI60 one-dose screen; details: Homo sapiens
MDA-MB-435 = test: NCI60 five-dose screen; details: Homo sapiens
SW-620 = test: NCI60 five-dose screen; details: Homo sapiens
MOLT-4 = test: NCI60 five-dose screen; details: Homo sapiens
ACHN [7] = test: NCI60 five-dose screen; details: Homo sapiens
SK-MEL-5 = test: NCI60 five-dose screen; details: Homo sapiens
SK-OV-3 = test: NCI60 five-dose screen; details: Homo sapiens
DU-145 = test: NCI60 one-dose screen; details: Homo sapiens
CNS Cancer panel = test: NCI60 five-dose screen, panel mean; details: Homo sapiens
OVCAR-8 = test: NCI60 one-dose screen; details: Homo sapiens
M14 = test: NCI60 one-dose screen; details: Homo sapiens
NCI-H522 [8] = test: NCI60 one-dose screen; details: Homo sapiens
SF-295 = test: NCI60 one-dose screen; details: Homo sapiens
HL-60(TB) = test: NCI60 one-dose screen; details: Homo sapiens, HL-60, read-out: Growth percent
Colon Cancer panel = test: NCI60 five-dose screen, panel mean; details: Homo sapiens
Breast Cancer panel = test: NCI60 five-dose screen, panel mean; details: Homo sapiens
HCT-15 [9] = test: NCI60 five-dose screen; details: Homo sapiens
OVCAR-4 [10] = test: NCI60 five-dose screen; details: Homo sapiens
OVCAR-3 = test: NCI60 one-dose screen; details: Homo sapiens
HT29 = test: NCI60 five-dose screen; details: Homo sapiens, HT-29
IGROV1 [11] = test: NCI60 five-dose screen; details: Homo sapiens, IGROV-1
RXF 393 = test: NCI60 one-dose screen; details: Homo sapiens
NCI/ADR-RES = test: NCI60 one-dose screen; details: Homo sapiens, read-out: Growth percent
IGROV1 [12] = test: NCI60 one-dose screen; details: Homo sapiens
MALME-3M = test: NCI60 five-dose screen; details: Homo sapiens
NCI-H522 [13] = test: NCI60 five-dose screen; details: Homo sapiens
T-47D = test: NCI60 five-dose screen; details: Homo sapiens, T47D

## CCC12C=CCN3CCC4(c5ccc(OC)cc5N(C)C4C(O)(C(=O)OC)C1OC(=O)CCC[P+](c1ccc(C)cc1)(c1ccc(C)cc1)c1ccc(C)cc1)C32 (centres unmarked) [9a]
BT-549; BT-549, read-out: Growth percent
  activity at 10 µM: -96.9%
EKVX
  activity at 10 µM: -94.7%
HCC-2998; HCC 2998, read-out: Growth percent
  activity at 10 µM: -91.4%
NCI-H322M
  activity at 10 µM: -98.4%
Leukemia panel; read-out: Mean GI50
  GI50: 260 nM
SK-MEL-28; SK-MEL-28, read-out: Growth percent
  activity at 10 µM: -96.6%
ACHN [1]
  activity at 10 µM: -97.8%
[2]; 60 cell
  activity at 10 µM: -78.6%
[2]; one-dose, 10 µM, average over cell lines
  average reduction / average cell death: more than 70%
OVCAR-4 [3]; OVCAR-4, read-out: Growth percent
  activity at 10 µM: -73.5%
HCT-15 [4]; HCT-15, read-out: Growth percent
  activity at 10 µM: -91%
Renal Cancer panel; read-out: Mean GI50
  GI50: 1050 nM
CCRF-CEM
  GI50: 359 nM
LOX IMVI
  GI50: 333 nM
Ovarian Cancer panel; read-out: Mean GI50
  GI50: 1570 nM
HOP-62; HOP-62
  GI50: 470 nM
CAKI-1; CAKI-1, read-out: Growth percent
  activity at 10 µM: -95.3%
NCI-H23; NCI-H23, read-out: Growth percent
  activity at 10 µM: -90.7%
OVCAR-5; OVCAR-5, read-out: Growth percent
  activity at 10 µM: -95.9%
UACC-62; UACC-62
  GI50: 275 nM
HCT-116 [5]; HCT-116
  GI50: 307 nM
HCT-116 [6]; HCT-116, read-out: Growth percent
  activity at 10 µM: -93.4%
MDA-MB-435; MDA-MB-435
  GI50: 331 nM
SW-620; SW-620
  GI50: 434 nM
MOLT-4; MOLT-4
  GI50: 294 nM
ACHN [7]
  GI50: 1610 nM
SK-MEL-5; SK-MEL-5
  GI50: 532 nM
SK-OV-3; SK-OV-3
  GI50: 290 nM
DU-145; DU-145, read-out: Growth percent
  activity at 10 µM: -78.5%
CNS Cancer panel; read-out: Mean GI50
  GI50: 360 nM
OVCAR-8; OVCAR-8, read-out: Growth percent
  activity at 10 µM: -85%
M14; M14, read-out: Growth percent
  activity at 10 µM: -85.3%
NCI-H522 [8]; NCI-H522, read-out: Growth percent
  activity at 10 µM: -86.3%
SF-295; SF-295, read-out: Growth percent
  activity at 10 µM: -89.1%
HL-60(TB)
  activity at 10 µM: -47.5%
Colon Cancer panel; read-out: Mean GI50
  GI50: 510 nM
Breast Cancer panel; read-out: Mean GI50
  GI50: 270 nM
HCT-15 [9]; HCT-15
  GI50: 1620 nM
OVCAR-4 [10]; OVCAR-4
  GI50: 370 nM
OVCAR-3; OVCAR-3, read-out: Growth percent
  activity at 10 µM: -61.9%
HT29
  GI50: 219 nM
IGROV1 [11]
  GI50: 383 nM
RXF 393; RXF 393, read-out: Growth percent
  activity at 10 µM: -82.8%
NCI/ADR-RES
  activity at 10 µM: 18.1%
IGROV1 [12]; IGROV-1, read-out: Growth percent
  activity at 10 µM: -89.5%
MALME-3M; Malme-3M
  GI50: 220 nM
NCI-H522 [13]; NCI-H522
  GI50: 258 nM
T-47D
  GI50: 314 nM

## CCC12C=CCN3CCC4(c5ccc(OC)cc5N(C)C4C(O)(C(=O)OC)C1OC(=O)c1ccc(C[P+](c4ccccc4)(c4ccccc4)c4ccccc4)cc1)C32 (centres unmarked) [compound 12]
BT-549; BT-549, 10 μM, one-dose, read-out: Growth percent
  activity at 10 µM: -89.1%
EKVX; 10 μM, one-dose
  activity at 10 µM: 28.7%
HCC-2998; HCC-2998, 10 μM, one-dose, read-out: Growth percent
  activity at 10 µM: -74.6%
NCI-H322M; 10 μM, one-dose
  activity at 10 µM: 19.9%
Leukemia panel; mean over Leukemia panel, read-out: GI50 Mean
  GI50: 770 nM
SK-MEL-28; SK-MEL-28, 10 μM, one-dose, read-out: Growth percent
  activity at 10 µM: -92.4%
ACHN [1]; 10 μM, one-dose
  activity at 10 µM: 73.7%
[2]; mean over 60 cell lines, 10 μM, one-dose
  activity at 10 µM: -37.1%
[2]; one-dose, 10 µM
  cytotoxicity (in words): moderate cytotoxicity
OVCAR-4 [3]; OVCAR-4, 10 μM, one-dose, read-out: Growth percent
  activity at 10 µM: 7.65%
HCT-15 [4]; HCT-15, 10 μM, one-dose, read-out: Growth percent
  activity at 10 µM: 90.1%
Renal Cancer panel; mean over Renal Cancer panel, read-out: GI50 Mean
  GI50: 8300 nM
CCRF-CEM; Leukemia, read-out: GI50
  GI50: 1300 nM
LOX IMVI; Melanoma, read-out: GI50
  GI50: 1820 nM
Ovarian Cancer panel; mean over Ovarian Cancer panel, read-out: GI50 Mean
  GI50: 15800 nM
HOP-62; HOP-62, Non-small Cell Lung Cancer, read-out: GI50
  GI50: 2670 nM
CAKI-1; CAKI-1, 10 μM, one-dose, read-out: Growth percent
  activity at 10 µM: -7.04%
NCI-H23; NCI-H23, 10 μM, one-dose, read-out: Growth percent
  activity at 10 µM: 0.48%
OVCAR-5; OVCAR-5, 10 μM, one-dose, read-out: Growth percent
  activity at 10 µM: 2.52%
UACC-62; UACC-62, Melanoma, read-out: GI50
  GI50: 1030 nM
HCT-116 [5]; HCT-116, Colon Cancer, read-out: GI50
  GI50: 1590 nM
HCT-116 [6]; HCT-116, 10 μM, one-dose, read-out: Growth percent
  activity at 10 µM: -62.8%
MDA-MB-435; MDA-MB-435, Melanoma, read-out: GI50
  GI50: 483 nM
SW-620; SW-620, Colon Cancer, read-out: GI50
  GI50: 1500 nM
MOLT-4; MOLT-4, Leukemia, read-out: GI50
  GI50: 1470 nM
ACHN [7]; Renal Cancer, read-out: GI50
  GI50: 18500 nM
SK-MEL-5; SK-MEL-5, Melanoma, read-out: GI50
  GI50: 1210 nM
SK-OV-3; SK-OV-3, Ovarian Cancer, read-out: GI50
  GI50: 2700 nM
DU-145; DU-145, 10 μM, one-dose, read-out: Growth percent
  activity at 10 µM: 16.9%
CNS Cancer panel; mean over CNS Cancer panel, read-out: GI50 Mean
  GI50: 1320 nM
OVCAR-8; OVCAR-8, 10 μM, one-dose, read-out: Growth percent
  activity at 10 µM: -18.5%
M14; M14, 10 μM, one-dose, read-out: Growth percent
  activity at 10 µM: -73.9%
NCI-H522 [8]; NCI-H522, 10 μM, one-dose, read-out: Growth percent
  activity at 10 µM: -17.4%
SF-295; SF-295, 10 μM, one-dose, read-out: Growth percent
  activity at 10 µM: 5.9%
HL-60(TB)
  activity at 10 µM: -69%
Colon Cancer panel; mean over Colon Cancer panel, read-out: GI50 Mean
  GI50: 4690 nM
Breast Cancer panel; mean over Breast Cancer panel, read-out: GI50 Mean
  GI50: 610 nM
HCT-15 [9]; HCT-15, Colon Cancer, read-out: GI50
  GI50: 27400 nM
OVCAR-4 [10]; OVCAR-4, Ovarian Cancer, read-out: GI50
  GI50: 1050 nM
OVCAR-3; OVCAR-3, 10 μM, one-dose, read-out: Growth percent
  activity at 10 µM: -63.4%
HT29; HT29, Colon Cancer, read-out: GI50
  GI50: 541 nM
IGROV1 [11]; IGROV1, Ovarian Cancer, read-out: GI50
  GI50: 885 nM
RXF 393; RXF 393, 10 μM, one-dose, read-out: Growth percent
  activity at 10 µM: -61.8%
IGROV1 [12]; IGROV-1, IGROV1, 10 μM, one-dose, read-out: Growth percent
  activity at 10 µM: -69.6%
MALME-3M; MALME-3M, Melanoma, read-out: GI50
  GI50: 652 nM
NCI-H522 [13]; NCI-H522, Non-small Cell Lung Cancer, read-out: GI50
  GI50: 491 nM
T-47D; T-47D, Breast Cancer, read-out: GI50
  GI50: 525 nM
